The values that follow come from BindingDB's records for doi:10.3109/14756366.2011.651463 (Medical University of Bialystok, 2013).

Usually Ki stands for a dissociation constant, usually derived from enzyme kinetics or from competition with a known ligand. Lower therefore signals a stronger hold on the target.

The target of test [1] is Urokinase-type plasminogen activator (Homo sapiens, UniProt P00749). The test can be described thus: Urokinase Amidolytic Assay. The settings on record: pH 8.8. The procedure: Buffer and 0.1 mL of enzyme solution was added to 0.2 mL of examined compounddissolved in 0.15 M NaCl (as control 0.15 M NaCl). The buffer and the enzyme solution included: Tris buffer − 0.6 mL (pH 8.8), enzyme: urokinase (50 units/mL), synthetic substrate: S-2444 (0.1 mL, 3 mM). The mixture was incubated for 3 min at 37°C. After 20 min of incubation, the reaction was stopped by adding 0.1 ml of 50% acetic acid, and the absorbance of the released p-nitroaniline was measured at 405 nm (Spekol 1300, AnalyticJena).

A further test has as its target Prothrombin (Homo sapiens, UniProt P00734). The test can be described thus: Thrombin Amidolytic Assay. As to conditions: pH 8.4. Here is the method: Buffer and 0.1 mL of enzyme solution was added to 0.2 mL of examined compounddissolved in 0.15 M NaCl (as control 0.15 M NaCl). The buffer and the enzyme solution included: Tris buffer − 0.5 mL (pH 8.4), enzyme: thrombin (1 units/mL), synthetic substrate: S-2238 (0.2 mL, 0.75 mM). The mixture was incubated for 3 min at 37°C. After 20 min of incubation, the reaction was stopped by adding 0.1 ml of 50% acetic acid, and the absorbance of the released p-nitroaniline was measured at 405 nm (Spekol 1300, AnalyticJena).

Another test has as its target Plasminogen (Homo sapiens, UniProt P00747). The test can be described thus: Plasmin Amidolytic Assay. As to conditions: pH 7.4. The procedure: Buffer and 0.1 mL of enzyme solution was added to 0.2 mL of examined compounddissolved in 0.15 M NaCl (as control 0.15 M NaCl). The buffer and the enzyme solution included: Tris buffer − 0.5 mL (pH 7.4), enzyme: plasmin (0.4 units/mL), synthetic substrate: S-2251 (0.2 mL, 3 mM). The mixture was incubated for 3 min at 37°C. After 20 min of incubation, the reaction was stopped by adding 0.1 ml of 50% acetic acid, and the absorbance of the released p-nitroaniline was measured at 405 nm (Spekol 1300, AnalyticJena).

In the next test the target is Serine protease 1 (Homo sapiens, UniProt P07477). The test can be described thus: Tyrpsin Amidolytic Assay. The settings on record: pH 7.5. The procedure: Buffer and 0.1 mL of enzyme solution was added to 0.2 mL of examined compounddissolved in 0.15 M NaCl (as control 0.15 M NaCl). The buffer and the enzyme solution included: […] − 0.5 mL (pH 7.5), enzyme: trypsin (0.4units/mL), synthetic substrate: Bzl-L-Arg-pNA HCl (0.2 mL, 8 mM). The mixture was incubated for 3 min at 37°C. After 20 min of incubation, the reaction was stopped by adding 0.1 ml of 50% acetic acid, and the absorbance of the released p-nitroaniline was measured at 405 nm (Spekol 1300, AnalyticJena).
Serine protease 1, sequence (P07477 whole entry): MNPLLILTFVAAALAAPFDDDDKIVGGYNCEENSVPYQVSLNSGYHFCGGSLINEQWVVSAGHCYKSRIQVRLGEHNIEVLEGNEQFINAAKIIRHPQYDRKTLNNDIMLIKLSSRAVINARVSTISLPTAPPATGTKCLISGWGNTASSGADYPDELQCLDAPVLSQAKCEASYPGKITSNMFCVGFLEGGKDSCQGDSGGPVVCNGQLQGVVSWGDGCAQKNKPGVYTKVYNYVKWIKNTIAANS

Plasminogen, sequence (P00747 97-580 limits assumed): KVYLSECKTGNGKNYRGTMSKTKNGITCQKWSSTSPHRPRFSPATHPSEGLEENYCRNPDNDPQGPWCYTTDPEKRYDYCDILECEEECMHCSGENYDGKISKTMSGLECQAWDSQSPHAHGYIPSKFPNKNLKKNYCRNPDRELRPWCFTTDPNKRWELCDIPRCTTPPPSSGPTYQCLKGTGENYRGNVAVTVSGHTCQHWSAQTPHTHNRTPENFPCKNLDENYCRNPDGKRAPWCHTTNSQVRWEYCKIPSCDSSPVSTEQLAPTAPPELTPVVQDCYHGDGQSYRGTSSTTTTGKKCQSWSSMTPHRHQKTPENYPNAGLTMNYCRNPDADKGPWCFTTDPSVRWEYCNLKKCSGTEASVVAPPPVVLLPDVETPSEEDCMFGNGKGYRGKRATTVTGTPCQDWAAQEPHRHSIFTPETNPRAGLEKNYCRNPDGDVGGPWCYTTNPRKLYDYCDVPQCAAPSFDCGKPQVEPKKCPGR
Plasminogen, sequence (P00747 581-810 limits assumed): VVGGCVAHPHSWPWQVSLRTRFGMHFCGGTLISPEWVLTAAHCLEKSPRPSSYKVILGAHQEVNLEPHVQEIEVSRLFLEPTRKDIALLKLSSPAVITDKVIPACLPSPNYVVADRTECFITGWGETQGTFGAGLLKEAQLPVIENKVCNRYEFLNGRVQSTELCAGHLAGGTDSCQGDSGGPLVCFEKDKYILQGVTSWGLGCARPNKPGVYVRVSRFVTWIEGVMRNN

Take `N=C(N)NCCC[C@@H](NC(=O)C1(NC(=O)[C@H](N)CO)CCCCC1)C(=O)O` [H-D-Ser-1ACH-Arg-OH (8)]: the inhibition constant Ki in test [1] is 395 µM; at Prothrombin it was 15 µM.

On to `N=C(N)NCCC[C@H](NC(=O)C1(NC(=O)[C@H](N)CO)CCCCC1)C(=O)O` [H-D-Ser-1ACH-Arg-OH (8)], for which the values for the inhibition constant (Ki) at Plasminogen and on Serine protease 1 were 7.7 µM and 26.2 µM, respectively.

Take `N=C(N)NCCC[C@@H](NC(=O)[C@@H](CC1CCCCC1)NC(=O)[C@H](N)CO)C(=O)O` [H-D-Ser-Cha-Arg-OH (5)]: the Ki in test [1] worked out at 247 µM; on Prothrombin, 19.8 µM.

For `N=C(N)NCCC[C@H](NC(=O)[C@H](CC1CCCCC1)NC(=O)[C@H](N)CO)C(=O)O` [H-D-Ser-Cha-Arg-OH (5)], the inhibitory constant (Ki) is 8.9 µM at Plasminogen and 30.9 µM at Serine protease 1.

Regarding `N=C(N)NCCC[C@@H](NC(=O)[C@@H](Cc1ccccc1)NC(=O)[C@H](N)CO)C(=O)O` [H-D-Ser-Phe-Arg-OH (2)], the Ki in test [1] amounted to 544 µM; at Prothrombin it was 12.1 µM.

Regarding `N=C(N)NCCC[C@H](NC(=O)[C@H](Cc1ccccc1)NC(=O)[C@H](N)CO)C(=O)O` [H-D-Ser-Phe-Arg-OH (2)], the inhibitory constant (Ki) amounted to 8.7 µM at Plasminogen and 22.9 µM at Serine protease 1.

As for `N=C(N)NCCC[C@@H](NC(=O)[C@@H](CCC1CCCCC1)NC(=O)[C@H](N)CO)C(=O)O` [H-D-Ser-homoCha-Arg-OH (6)], the Ki came to 451 µM in test [1] and 18.1 µM on Prothrombin.

Consider `N=C(N)NCCC[C@H](NC(=O)[C@H](CCC1CCCCC1)NC(=O)[C@H](N)CO)C(=O)O` [H-D-Ser-homoCha-Arg-OH (6)], for which the Ki was 11.2 µM at Plasminogen and 27.2 µM at Serine protease 1.

Regarding `N=C(N)NCCC[C@@H](NC(=O)[C@@H](CCc1ccccc1)NC(=O)[C@H](N)CO)C(=O)O` [H-D-Ser-homoPhe-Arg-OH (3)], the figures for the Ki (in test [1]; on Prothrombin) were 566 µM and 16.1 µM, respectively.

In the case of `N=C(N)NCCC[C@H](NC(=O)[C@H](CCc1ccccc1)NC(=O)[C@H](N)CO)C(=O)O` [H-D-Ser-homoPhe-Arg-OH (3)], the inhibition constant (Ki) on Plasminogen was found to be 5.9 µM; on Serine protease 1 it was 23.9 µM.

`C[C@@](Cc1ccccc1)(NC(=O)[C@H](N)CO)C(=O)N[C@@H](CCCNC(=N)N)C(=O)O` [H-D-Ser-αMePhe-Arg-OH (7)]: the results for the Ki on Plasminogen and on Serine protease 1 were 7.9 µM and 28.2 µM, respectively.
